{"source": "patent US11352604B2", "about": "“Method of making cardiomyocytes from human pluripotent cells” (Wisconsin Alumni Research Foundation, priority 2016, dated 2022)", "tested_on": "hPSC-CMs", "test": "Bottom-up label-free quantitative proteomics, day 30 hPSC-CMs from pI:C-treated vs untreated progenitors", "type": "cell-based, human", "procedure": "Frozen CM pellets from day 30 in the H9 cTnT-GFP reporter cell line with or without pI:C treatment were washed with Ca^2+-free DPBS and centrifuged at 10,000 g for 10 min and the wash solvent was removed. 10 μl of 4 M urea, 0.5 M ammonium bicarbonate, 1 mM DTT, 10 mM L-methionine was added to the each pellet, and the pellets were vortexed and sonicated for 5 min, followed by incubation with shaking at 50° C. for 10 min. ProteaseMax™ surfactant was added to a final concentration of 0.04% and the pellets were vortexed and incubated at 37° C. for 10 min. 30 μl of water was added to the pellets, and the pellets were incubated at 80° C. for 20 min. After centrifugation at 16,000 g for 10 min, the supernatant was collected for Bradford assay to determine protein concentration. All samples were diluted to 800 ng/μl using 1 M urea and 125 mM ammonium bicarbonate, and 50 μl of the extract was reduced with 10 mM DTT for 30 min at 37° C., followed by alkylation with 25 mM Iodoacetamide for 30 min at room temperature in dark. The pH of the samples were tested to make sure the pH was between 7-8 and Trypsin Gold (Promega®) was added to a final trypsin to substrate ratio of 1:50 and incubated at 37° C. for overnight (16 hrs). Acetic acid was added to a final concentration of 5% (pH˜3) and the samples were centrifuged at 16,000 g for 30 min prior to LC-MS analysis.\nLabel-free quantitative proteomics analysis was performed using a high-resolution q-TOF mass spectrometer (Impact II, Bruker Daltonics). 3.6 μg of the protein digest were injected to a C18 (New Objective) trapping column for desalting at a flow rate of […] for 5 minutes. The peptides were separated on a 250 mm PicoFrit capillary column packed with 1.9 μm, 175 A Hypersil Gold aQ C18 particles (New Objective) at a flow rate of 300 nl/min by a gradient of 5-45% mobile phase B (0.1% formic acid in acetonitrile) (mobile phase A: 0.1% formic acid in water). The capillary column tip was customized to fit into the CaptiveSpray nanoESI source (Bruker Daltonics) for direct delivery of samples to the mass spectrometer. The most abundant 30 ions were selected for fragmentation by tandem MS (MS/MS) with an active (dynamic) exclusion time of 45 sec. The control group with and without pI:C treatment were analyzed with 5 and 6, respectively, biological replicates. Each sample was analyzed with 3 injection replicates. Protein identification and quantification were performed using the MaxQuant v1.5.7. Proteins were considered identified when at least 1 unique peptide was identified in at least 2 of the biological replicates. Label-free protein quantification was performed by first normalizing the intensity of the proteins (measured by both unique and razer peptides) to the median intensity of the same dataset, and the maximum and minimum of all the non-zero values (if more than 5 values are non-zero) were removed prior to averaging the datasets from the same group. […] Protein-protein interaction analysis was performed using the STRING database.", "key": {"[1]": {"conditions": "p<0.05 and >50% change, about 2,600 proteins detected"}}, "data": [{"substance": "polyinosinic-polycytidylic acid [pI:C]", "values": [{"measurement": "number of proteins significantly downregulated", "setting": "[1]", "result": 100, "unit": "proteins"}, {"measurement": "number of proteins significantly upregulated", "setting": "[1]", "result": 168, "unit": "proteins"}, {"measurement": "Fold change", "setting": "protein ABHD10", "result": 2.205}, {"measurement": "Fold change", "setting": "protein ACSF2", "result": 1.971}, {"measurement": "Fold change", "setting": "protein AGK", "result": 2.084}, {"measurement": "Fold change", "setting": "protein AIFM1", "result": 2.224}, {"measurement": "Fold change", "setting": "protein AK4", "result": 0.122}, {"measurement": "Fold change", "setting": "protein AKAP12", "result": 0.2108}, {"measurement": "Fold change", "setting": "protein ALDH18A1", "result": 0.259}, {"measurement": "Fold change", "setting": "protein ARL6IP1", "result": 0.2711}, {"measurement": "Fold change", "setting": "protein ATP5F1", "result": 3.556}, {"measurement": "Fold change", "setting": "protein ATP6V1F", "result": 0.284}, {"measurement": "Fold change", "setting": "protein BMP1", "result": 2.714}, {"measurement": "Fold change", "setting": "protein C5orf24", "result": 0.2927}, {"measurement": "Fold change", "setting": "protein CALD1", "result": 0.3099}, {"measurement": "Fold change", "setting": "protein CAPZA1", "result": 0.3292}, {"measurement": "Fold change", "setting": "protein CBWD1", "result": 0.3341}, {"measurement": "Fold change", "setting": "protein CDC37", "result": 0.3347}, {"measurement": "Fold change", "setting": "protein CDK9", "result": 1.954}, {"measurement": "Fold change", "setting": "protein CDKN1B", "result": 0.3393}, {"measurement": "Fold change", "setting": "protein CFC1, CFC1B", "result": 2.61}, {"measurement": "Fold change", "setting": "protein CISD1", "result": 6.047}, {"measurement": "Fold change", "setting": "protein CLNS1A", "result": 0.3492}, {"measurement": "Fold change", "setting": "protein CLPX", "result": 3.1174}, {"measurement": "Fold change", "setting": "protein COL1A2", "result": 0.3554}, {"measurement": "Fold change", "setting": "protein COL2A1", "result": 4.221}, {"measurement": "Fold change", "setting": "protein COL3A1", "result": 0.3719}, {"measurement": "Fold change", "setting": "protein COL18A1", "result": 0.3541}, {"measurement": "Fold change", "setting": "protein CPS1", "result": 0.3857}, {"measurement": "Fold change", "setting": "protein CRLF3", "result": 0.3949}, {"measurement": "Fold change", "setting": "protein CYB5R3", "result": 2.279}, {"measurement": "Fold change", "setting": "protein DBT", "result": 71.68}, {"measurement": "Fold change", "setting": "protein DCXR", "result": 1.952}, {"measurement": "Fold change", "setting": "protein DKC1", "result": 0.3962}, {"measurement": "Fold change", "setting": "protein DSG2", "result": 0.3991}, {"measurement": "Fold change", "setting": "protein DYNLL1", "result": 0.407}, {"measurement": "Fold change", "setting": "protein EDC4", "result": 0.4111}, {"measurement": "Fold change", "setting": "protein EEF1B2", "result": 0.416}, {"measurement": "Fold change", "setting": "protein EIF3A", "result": 0.4235}, {"measurement": "Fold change", "setting": "protein EIF3K", "result": 0.4335}, {"measurement": "Fold change", "setting": "protein ELAC2", "result": 0.4539}, {"measurement": "Fold change", "setting": "protein EMC1", "result": 3.674}, {"measurement": "Fold change", "setting": "protein EPN1", "result": 2.525}, {"measurement": "Fold change", "setting": "protein EPS15L1", "result": 2.414}, {"measurement": "Fold change", "setting": "protein ERLIN2", "result": 2.026}, {"measurement": "Fold change", "setting": "protein EXOSC6", "result": 0.4623}, {"measurement": "Fold change", "setting": "protein FABP5", "result": 0.4749}, {"measurement": "Fold change", "setting": "protein FLNA", "result": 0.4757}, {"measurement": "Fold change", "setting": "protein FLNB", "result": 0.4767}, {"measurement": "Fold change", "setting": "protein FUBP1", "result": 0.484}, {"measurement": "Fold change", "setting": "protein H6PD", "result": 0.4845}, {"measurement": "Fold change", "setting": "protein HEATR6", "result": 0.4857}, {"measurement": "Fold change", "setting": "protein HEBP2", "result": 0.4867}, {"measurement": "Fold change", "setting": "protein HIST1H2AJ", "result": 4.696}, {"measurement": "Fold change", "setting": "protein HMGCS1", "result": 0.5003}, {"measurement": "Fold change", "setting": "protein HSDL1", "result": 2.135}, {"measurement": "Fold change", "setting": "protein IMMT", "result": 2.059}, {"measurement": "Fold change", "setting": "protein IQGAP1", "result": 0.5083}, {"measurement": "Fold change", "setting": "protein ISOC1", "result": 0.5114}, {"measurement": "Fold change", "setting": "protein ITM2B", "result": 2.861}, {"measurement": "Fold change", "setting": "protein KLC4", "result": 0.5119}, {"measurement": "Fold change", "setting": "protein KRT18, KRT35", "result": 0.5128}, {"measurement": "Fold change", "setting": "protein KRT19", "result": 0.5211}, {"measurement": "Fold change", "setting": "protein LAMA1", "result": 2.03}, {"measurement": "Fold change", "setting": "protein LGALS1", "result": 0.5211}, {"measurement": "Fold change", "setting": "protein LMCD1", "result": 0.5226}, {"measurement": "Fold change", "setting": "protein LNP", "result": 2.183}, {"measurement": "Fold change", "setting": "protein LRRC59", "result": 0.5235}, {"measurement": "Fold change", "setting": "protein MAP2K4", "result": 2.414}, {"measurement": "Fold change", "setting": "protein MEST", "result": 0.5333}, {"measurement": "Fold change", "setting": "protein MRPS22", "result": 1.976}, {"measurement": "Fold change", "setting": "protein MT-ATP8", "result": 2.244}, {"measurement": "Fold change", "setting": "protein MTCH2", "result": 1.99}, {"measurement": "Fold change", "setting": "protein MYL6", "result": 0.534}, {"measurement": "Fold change", "setting": "protein MYO9B", "result": 2.112}, {"measurement": "Fold change", "setting": "protein NDUFA4", "result": 2.128}, {"measurement": "Fold change", "setting": "protein NGLY1", "result": 0.5359}, {"measurement": "Fold change", "setting": "protein NIT2", "result": 0.5435}, {"measurement": "Fold change", "setting": "protein NNT", "result": 1.994}, {"measurement": "Fold change", "setting": "protein NSDHL", "result": 2.081}, {"measurement": "Fold change", "setting": "protein NUP85", "result": 2.249}, {"measurement": "Fold change", "setting": "protein OGFR", "result": 0.5517}, {"measurement": "Fold change", "setting": "protein ORF1", "result": 2.257}, {"measurement": "Fold change", "setting": "protein P4HB", "result": 0.5531}, {"measurement": "Fold change", "setting": "protein PCCA", "result": 2.032}, {"measurement": "Fold change", "setting": "protein PDLIM1", "result": 0.5561}, {"measurement": "Fold change", "setting": "protein PDLIM3", "result": 0.557}, {"measurement": "Fold change", "setting": "protein PHB2", "result": 1.952}, {"measurement": "Fold change", "setting": "protein RAC1", "result": 2.128}, {"measurement": "Fold change", "setting": "protein RAD54L2", "result": 4.857}, {"measurement": "Fold change", "setting": "protein RRAS", "result": 3.82}, {"measurement": "Fold change", "setting": "protein SLC25A1", "result": 2.333}, {"measurement": "Fold change", "setting": "protein SLC25A3", "result": 2.195}, {"measurement": "Fold change", "setting": "protein SLC25A12", "result": 1.968}, {"measurement": "Fold change", "setting": "protein SMG7", "result": 3.817}, {"measurement": "Fold change", "setting": "protein THBS1, THBS3, THBS2", "result": 3.483}, {"measurement": "Fold change", "setting": "protein TMEM65", "result": 2.197}, {"measurement": "Fold change", "setting": "protein UACA", "result": 1.958}, {"measurement": "Fold change", "setting": "protein UBE4A", "result": 5.484}, {"measurement": "Fold change", "setting": "protein UQCRB", "result": 3.665}, {"measurement": "Fold change", "setting": "protein USMG5", "result": 2.085}, {"measurement": "Fold change", "setting": "protein XPO7", "result": 2.231}]}]}
